System: UV-killed Escherichia coli
Experiment: Skin challenge (blister) model, intradermal UV-killed E. coli in healthy volunteers (Example 3)
Format: in vivo, humans
Protocol: The ability of administration of a pharmaceutical composition including ajulemic acid to treat infection was assayed in a skin challenge model. A self-resolving acute inflammatory response was triggered by the intradermal injection of UV-killed Escherichia coli into the forearm of healthy volunteers. […] This study was performed to determine whether ajulemic acid promotes the resolution of infection at the site of inflammation, thereby treating that infection.
Cells and exudates were harvested at several time points following injection of UV-killed E. coli by applying negative pressure over the inflamed site.
The study included four experimental groups (n=10 in each group): • 1) Placebo, twice daily for four days • 2) Ajulemic acid, 5 mg, twice daily for four days • 3) Ajulemic acid, 20 mg, twice daily for four days • 4) Prednisone, 15 mg daily for four days
The volunteer (healthy males, 18-50 years) were randomly allocated to one of the above three groups and orally administered the test drug for four consecutive days. On the morning of the fourth day (after intake of the first dose), experimental acute inflammation was elicited by infection with UV-killed E. coli. The drug and the placebo were provided as capsules.
UV killed E. coli (Strain: NCTC 10418, Source: Public Health England, UK) were prepared as follows. E. coli described were grown overnight in Luria Broth (Sigma) at 37° C. The next morning, the bacteria were washed twice in sterile PBS (2500 g, 20 min, 4° C.) and resuspended in a sterile petri dish.
Bacteria were then killed by exposure to an ultraviolet light (UV) source (302 nm, ChemiDoc, trans-UV mode; Bio-Rad laboratories) for 60 min and then washed again in sterile saline. Bacterial counts were determined by optical density (OD600=0.365 equates to […] E. coli/ml). UVKEc were resuspended in a volume of sterile saline to obtain the count of 1.5×10^8/ml, aliquoted into sterile eppendorf tubes and then frozen at −80° C. until used for injections.
After disinfecting and shaving the skin, 1.5×10^7 UVKEc in 100 μl saline were injected intradermally into a marked site on the volar aspect of each forearm. To characterize the treatment of infection using ajulemic acid, each forearm was allotted to one of the predefined time-points namely 4, 8, 14, 24, 48 or 72 hours (h). Thus the effects of intradermal injection of UVKEc were allowed to progress for the duration of the time-point after which a suction blister was raised over the marked injection site, and then aspirated immediately. In summary, volunteer had two injection sites, one on each forearm, and contributed to two time points. On a separate group of volunteers, blister was raised on the naïve skin and treated as the baseline time point. Study time-points were discussed with volunteers before consenting.
Laser Doppler Imager (moor LDI-HIR, Moor Instruments Ltd, Axminster, Devon, UK) was used to quantify the blood flow at the site of infection. At predefined time points after injection of UVKEc, the forearm was placed under the scanner at a fixed distance to scan a fixed area. The scanner emits a laser beam, a portion of which is scattered by red blood cells present at the inflamed area. The scattering causes a change in frequency of the reflected light which is then detected by a photo detector. The velocity and concentration of red blood cells at the site directly affect the Doppler frequency shifts and account for the signal strength measured in arbitrary perfusion units. […] The total blood flow (measured in perfusion units) was calculated as product of number of valid pixels above background signal (Cut-off=300 perfusion units) and the mean blood flow signal over the valid pixels 11, 12.
To obtain the exudate from the site of infection, a 10 mm diameter suction blister was induced directly over the site of injection. […]

C[C@]12C=CC(=O)C=C1CC[C@@H]1[C@@H]2C(=O)C[C@@]2(C)[C@H]1CC[C@]2(O)C(=O)CO [prednisone, reference compound]
rise in C-reactive protein (CRP) levels in serum (after UVKEc triggered acute inflammation, multiple time points): does appear to inhibit the rise in CRP | infiltration of neutrophils at the site of inflammation (blister exudate) (ajulemic acid 5 mg or 20 mg BID, prednisone 15 mg daily, 4 h and 10 h, relative to placebo): decrease in the infiltration of neutrophils | levels of endotoxin at the site of injection (ajulemic acid 5 mg or 20 mg BID, prednisone 15 mg daily, 4 hr and 10 hr, limulus amoebocyte lysate test): appears to increase the levels of endotoxin | bacterial clearance (prednisone 15 mg daily, four days): does not increase bacterial clearance and may slow the rate of bacterial clearance
